“And” between values parts separate entries of the source, which are not always exact repeats. Equal values may be shown once. Inconclusive results and toxic doses are left out.
Test system: P388 leukemia ip, CD2F1 mice, survival T/C
Assay: NCI In Vivo Anticancer Drug Screen. Data for tumor model P388 Leukemia (intraperitoneal) in CD2F1 (CDF1) mice
Settings: endpoint: median survival time, higher = longer survival
How it was run: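 Mice carrying the transplanted tumor received test compound or vehicle. Survival was recorded in each group, and the value is the treated-group measurement divided by that of the vehicle-treated control group.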

[1] = dose: 50.0 mg/kg/injection, schedule: Q01DX009 (ip), vehicle: saline with Tween-80
[2] = dose: 100.0 mg/kg/injection, schedule: Q01DX009 (ip), vehicle: saline with Tween-80
[3] = dose: 200.0 mg/kg/injection, schedule: Q01DX009 (ip), vehicle: saline with Tween-80
[4] = dose: 100.0 mg/kg/injection, schedule: Q04DX002 (ip), vehicle: Klucel (hydroxypropylcellulose) (HPC)
[5] = dose: 50.0 mg/kg/injection, schedule: Q01DX009 (ip), vehicle: saline
[6] = dose: 100.0 mg/kg/injection, schedule: Q01DX009 (ip), vehicle: saline
[7] = dose: 200.0 mg/kg/injection, schedule: Q01DX009 (ip), vehicle: saline
[8] = dose: 50.0 mg/kg/injection, schedule: Q01DX005 (ip), vehicle: saline with Tween-80
[9] = dose: 100.0 mg/kg/injection, schedule: Q01DX005 (ip), vehicle: saline with Tween-80
[10] = dose: 200.0 mg/kg/injection, schedule: Q01DX005 (ip), vehicle: saline with Tween-80
[11] = dose: 100.0 mg/kg/injection, schedule: Q04DX003 (ip), vehicle: saline with Tween-80
[12] = dose: 200.0 mg/kg/injection, schedule: Q04DX003 (ip), vehicle: saline with Tween-80
[13] = dose: 100.0 mg/kg/injection, schedule: Q01DX001 (ip), vehicle: Klucel (hydroxypropylcellulose) (HPC)
[14] = dose: 200.0 mg/kg/injection, schedule: Q01DX001 (ip), vehicle: Klucel (hydroxypropylcellulose) (HPC)
[15] = dose: 50.0 mg/kg/injection, schedule: Q01DX005 (ip), vehicle: Klucel (hydroxypropylcellulose) (HPC)
[16] = dose: 100.0 mg/kg/injection, schedule: Q01DX005 (ip), vehicle: Klucel (hydroxypropylcellulose) (HPC)
[17] = dose: 200.0 mg/kg/injection, schedule: Q01DX005 (ip), vehicle: Klucel (hydroxypropylcellulose) (HPC)

Structure (SMILES): O=C1CCC(=O)N2c3ccccc3-c3ccccc3N12
- T/C [1]: 95 % of control
- T/C [2]: 93 % of control
- T/C [3]: 93 % of control

Structure (SMILES): COc1cc2c(cc1OC)C(Cc1ccsc1)NCC2 (configuration not stated)
- T/C (dose: 50.0 mg/kg/injection, schedule: Q04DX002 (ip), vehicle: Klucel (hydroxypropylcellulose) (HPC)): 102 % of control
- T/C [4]: 100 % of control

Structure (SMILES): O=C1CC(=O)OCCOCCOCCO1
- T/C [5]: 98 % of control
- T/C [6]: 117 % of control
- T/C [7]: 101 % of control

Structure (SMILES): C/C(N=NC(=S)N1CCCC(C)C1)=C1\C=CC=CN1O (configuration not stated)
- T/C [8]: 101 % of control
- T/C [9]: 98 % of control
- T/C [10]: 112 % of control

Structure (SMILES): COC(=O)CC1(C(=O)OC)c2sc(-c3ccccc3OC)cc2N2CCCC21 (configuration not stated)
- T/C (dose: 0.63 mg/kg/injection, schedule: Q01DX009 (ip), vehicle: Klucel (hydroxypropylcellulose) (HPC)): 106 % of control
- T/C (dose: 1.25 mg/kg/injection, schedule: Q01DX009 (ip), vehicle: Klucel (hydroxypropylcellulose) (HPC)): 102 % of control
- T/C (dose: 2.5 mg/kg/injection, schedule: Q01DX009 (ip), vehicle: Klucel (hydroxypropylcellulose) (HPC)): 102 % of control
- T/C (dose: 5.0 mg/kg/injection, schedule: Q01DX009 (ip), vehicle: Klucel (hydroxypropylcellulose) (HPC)): 100 % of control
- T/C (dose: 10.0 mg/kg/injection, schedule: Q01DX009 (ip), vehicle: Klucel (hydroxypropylcellulose) (HPC)): 105 % of control

Structure (SMILES): CCOc1c(OC)cc(-c2n[nH]c(=O)o2)cc1OC
- T/C (dose: 33.75 mg/kg/injection, schedule: Q01DX009 (ip), vehicle: Klucel (hydroxypropylcellulose) (HPC)): 90 % of control
- T/C (dose: 67.5 mg/kg/injection, schedule: Q01DX009 (ip), vehicle: Klucel (hydroxypropylcellulose) (HPC)): 105 % of control
- T/C (dose: 135.0 mg/kg/injection, schedule: Q01DX009 (ip), vehicle: Klucel (hydroxypropylcellulose) (HPC)): 99 % of control

Structure (SMILES): O=C(O)c1ccnc2ccc3ccccc3c12
- T/C [8]: 93 % of control
- T/C [9]: 109 % of control
- T/C [10]: 118 % of control

Structure (SMILES): C1CNC(C2=NCCN2)=N1
- T/C [8]: 108 % of control
- T/C [9]: 101 % of control
- T/C [10]: 97 % of control

Structure (SMILES): COc1ccc2c(c1O)N(C(C)=O)C1C3C(O)OCC=C4CN5CCC21C5CC43 (configuration not stated)
- T/C (dose: 4.5 mg/kg/injection, schedule: Q01DX009 (ip), vehicle: Klucel (hydroxypropylcellulose) (HPC)): 100 % of control
- T/C (dose: 5.0 mg/kg/injection, schedule: Q01DX009 (ip), vehicle: saline): 116 % of control
- T/C (dose: 9.0 mg/kg/injection, schedule: Q01DX009 (ip), vehicle: Klucel (hydroxypropylcellulose) (HPC)): 103 % of control
- T/C (dose: 10.0 mg/kg/injection, schedule: Q01DX009 (ip), vehicle: saline): 111 % of control
- T/C (dose: 18.0 mg/kg/injection, schedule: Q01DX009 (ip), vehicle: Klucel (hydroxypropylcellulose) (HPC)): 101 % of control
- T/C (dose: 20.0 mg/kg/injection, schedule: Q01DX009 (ip), vehicle: saline): 118 % of control
- T/C (dose: 36.0 mg/kg/injection, schedule: Q01DX009 (ip), vehicle: Klucel (hydroxypropylcellulose) (HPC)): 110 % of control
- T/C (dose: 72.0 mg/kg/injection, schedule: Q01DX009 (ip), vehicle: Klucel (hydroxypropylcellulose) (HPC)): 104 % of control

Structure (SMILES): CC1=CC(=O)N(NC(N)=O)C1=O
- T/C (dose: 6.25 mg/kg/injection, schedule: Q01DX009 (ip), vehicle: saline): 102 % of control and 110 % of control
- T/C (dose: 12.5 mg/kg/injection, schedule: Q01DX009 (ip), vehicle: saline): 105 % of control and 108 % of control
- T/C (dose: 25.0 mg/kg/injection, schedule: Q01DX009 (ip), vehicle: saline): 110 % of control and 123 % of control
- T/C [5]: 109 % of control and 122 % of control

Structure (SMILES): NNC(=O)CCc1ccccc1Br
- T/C [1]: 100 % of control and 90 % of control
- T/C (dose: 50.0 mg/kg/injection, schedule: Q04DX003 (ip), vehicle: saline with Tween-80): 104 % of control
- T/C [2]: 100 % of control
- T/C [11]: 90 % of control
- T/C [3]: 95 % of control
- T/C [12]: 90 % of control

Structure (SMILES): COC(=O)c1ccccc1N=NN(C)CC1OC2OC(C)(C)OC2C1OC (configuration not stated)
- T/C (dose: 100.0 mg/kg/injection, schedule: Q01DX001 (ip), vehicle: saline with Tween-80): 99 % of control
- T/C (dose: 200.0 mg/kg/injection, schedule: Q01DX001 (ip), vehicle: saline with Tween-80): 99 % of control
- T/C (dose: 400.0 mg/kg/injection, schedule: Q01DX001 (ip), vehicle: saline with Tween-80): 97 % of control

Structure (SMILES): COc1ccccc1-n1c(SC)nccc1=O
- T/C [4]: 100 % of control
- T/C (dose: 200.0 mg/kg/injection, schedule: Q04DX002 (ip), vehicle: Klucel (hydroxypropylcellulose) (HPC)): 100 % of control
- T/C (dose: 400.0 mg/kg/injection, schedule: Q04DX002 (ip), vehicle: Klucel (hydroxypropylcellulose) (HPC)): 94 % of control

Structure (SMILES): CCCCCCCCCc1cc(=O)[nH]c(=S)[nH]1
- T/C (dose: 15.0 mg/kg/injection, schedule: Q01DX005 (ip), vehicle: Klucel (hydroxypropylcellulose) (HPC)): 99 % of control
- T/C (dose: 30.0 mg/kg/injection, schedule: Q01DX005 (ip), vehicle: Klucel (hydroxypropylcellulose) (HPC)): 102 % of control
- T/C (dose: 60.0 mg/kg/injection, schedule: Q01DX005 (ip), vehicle: Klucel (hydroxypropylcellulose) (HPC)): 90 % of control and 93 % of control
- T/C (dose: 120.0 mg/kg/injection, schedule: Q01DX005 (ip), vehicle: Klucel (hydroxypropylcellulose) (HPC)): 100 % of control

Structure (SMILES): CC(C)=CC1C(C(=O)OCc2ccc3c(c2)OCO3)C1(C)C (configuration not stated)
- T/C [5]: 107 % of control
- T/C [6]: 93 % of control
- T/C [7]: 99 % of control
- T/C (dose: 400.0 mg/kg/injection, schedule: Q01DX009 (ip), vehicle: saline): 104 % of control

Structure (SMILES): COc1ccccc1/C=C\C1=CC(=O)CC(c2ccccc2OC)C1C (configuration not stated)
- T/C (dose: 50.0 mg/kg/injection, schedule: Q01DX001 (ip), vehicle: Klucel (hydroxypropylcellulose) (HPC)): 104 % of control
- T/C [13]: 100 % of control
- T/C [14]: 91 % of control

Structure (SMILES): COc1cc(Cc2nnc(Nc3ccccc3)[nH]c2=O)cc(OC)c1OC
- T/C [13]: 98 % of control
- T/C [14]: 94 % of control
- T/C (dose: 400.0 mg/kg/injection, schedule: Q01DX001 (ip), vehicle: Klucel (hydroxypropylcellulose) (HPC)): 98 % of control

Structure (SMILES): COc1ccc2c(c1)CN1C(CCC3c4ccccc4NC31)C2 (configuration not stated)
- T/C (dose: 60.0 mg/kg/injection, schedule: Q01DX005 (ip), vehicle: saline with Tween-80): 99 % of control
- T/C (dose: 120.0 mg/kg/injection, schedule: Q01DX005 (ip), vehicle: saline with Tween-80): 95 % of control
- T/C (dose: 240.0 mg/kg/injection, schedule: Q01DX005 (ip), vehicle: saline with Tween-80): 95 % of control

Structure (SMILES): O=C(O)c1ccc(NC(=O)C(Cl)Cl)cc1
- T/C [15]: 97 % of control
- T/C [16]: 102 % of control
- T/C [17]: 100 % of control

Structure (SMILES): CNC(=O)OCc1c(COC(=O)NC)c(-c2ccc(Cl)c(Cl)c2)n2c1Cc1ccccc1C2
- T/C (dose: 25.0 mg/kg/injection, schedule: Q01DX009 (ip), vehicle: distilled water + Tween-80): 153 % of control and 160 % of control
- T/C (dose: 50.0 mg/kg/injection, schedule: Q01DX009 (ip), vehicle: distilled water + Tween-80): 155 % of control and 195 % of control
- T/C (dose: 100.0 mg/kg/injection, schedule: Q01DX009 (ip), vehicle: distilled water + Tween-80): 171 % of control and 189 % of control
- T/C (dose: 200.0 mg/kg/injection, schedule: Q01DX009 (ip), vehicle: distilled water + Tween-80): 117 % of control and 97 % of control

Structure (SMILES): C[C@@]12N[C@H]3S[C@]1(C)c1ccccc1N2C[C@@H]3C#N
- T/C (dose: 25.0 mg/kg/injection, schedule: Q01DX005 (ip), vehicle: saline with Tween-80): 99 % of control
- T/C [8]: 86 % of control and 94 % of control
- T/C [9]: 96 % of control

Structure (SMILES): CCOC(=O)CC(=O)OC(C)(C)C
- T/C (dose: 25.0 mg/kg/injection, schedule: Q01DX009 (ip), vehicle: saline with Tween-80): 97 % of control
- T/C [1]: 106 % of control
- T/C [2]: 104 % of control
- T/C [3]: 100 % of control

Structure (SMILES): O=C(OC(c1ccccc1)c1ccccc1)c1ccc([N+](=O)[O-])cc1
- T/C [1]: 101 % of control
- T/C [2]: 106 % of control
- T/C [3]: 108 % of control

Structure (SMILES): Cc1cc(=O)c(C(=O)NC=O)c(C)o1
- T/C [15]: 99 % of control
- T/C [16]: 101 % of control
- T/C [17]: 117 % of control

Structure (SMILES): O=C1c2ccccc2CC1(Br)C(Br)c1ccccc1 (configuration not stated)
- T/C [2]: 109 % of control
- T/C [11]: 96 % of control
- T/C [3]: 118 % of control
- T/C [12]: 92 % of control
- T/C (dose: 400.0 mg/kg/injection, schedule: Q01DX009 (ip), vehicle: saline with Tween-80): 109 % of control
- T/C (dose: 400.0 mg/kg/injection, schedule: Q04DX003 (ip), vehicle: saline with Tween-80): 92 % of control
